Structures are written as SMILES. Read-outs that look alike come from different tables or passages of the source.

One assay addresses T1, human TRPV1 (Homo sapiens, UniProt Q8NER1).
T1 construct: expressed in transfected cells; host or cells: HEK-293
Put plainly: intracellular calcium in HEK-293 cells overexpressing human TRPV1. Conditions: 4 μM ionomycin as maximum reference. In kind it is cell-based. A general note: Calcium assays in cells follow changes in intracellular calcium, usually with a dye or a luminescent sensor.

In the next assay the test system is Sprague Dawley rats. Nature of the assay: in vivo test of induced urinary incontinence (partial urethral obstruction). Further details: species or system rat. The following applies: operated rats; for N^o of minctions per hour: 8 weeks after urethral obstruction, instilled in the bladder in ethanol at 50 nM for 30 min; for number of minctions per hour, result in words: instilled in the bladder at 50 nM for 30 min. As for the experimental part:
The activity of the compound of example 2 was also evaluated in rats through the in vivo test of induced urinary incontinence.
Sprague Dawley rats (250±10 g) were anaesthetized with chloral hydrate. The urinary bladder was opened through an incision along the abdomen median line, and the adipose tissue surrounding the urethra and ureters was removed. The proximal urethra was then tied up with non-absorbable surgery thread to create partial urethral obstruction.
On the treatment day, the compound of example 2, the compound prepared according to Appendino et al. and resiniferotoxin as the reference standard were solubilised in ethanol and instilled in the bladder at the concentration of 50 nM. The instillation lasted 30 min: during this period the infusion pump for the saline was turned off. After incubation, the bladder was emptied of any medicament solution, then the infusion pump was turned on again.

The mark [1] stands for this setting: in DMSO, read-out: pEC50 DMSO (pEC50 values for TPVR1) (converted).
Where [2] appears, read: in methanol, read-out: pEC50 methanol (pEC50 values for TPVR1) (converted).

T1 sequence (Q8NER1 whole entry): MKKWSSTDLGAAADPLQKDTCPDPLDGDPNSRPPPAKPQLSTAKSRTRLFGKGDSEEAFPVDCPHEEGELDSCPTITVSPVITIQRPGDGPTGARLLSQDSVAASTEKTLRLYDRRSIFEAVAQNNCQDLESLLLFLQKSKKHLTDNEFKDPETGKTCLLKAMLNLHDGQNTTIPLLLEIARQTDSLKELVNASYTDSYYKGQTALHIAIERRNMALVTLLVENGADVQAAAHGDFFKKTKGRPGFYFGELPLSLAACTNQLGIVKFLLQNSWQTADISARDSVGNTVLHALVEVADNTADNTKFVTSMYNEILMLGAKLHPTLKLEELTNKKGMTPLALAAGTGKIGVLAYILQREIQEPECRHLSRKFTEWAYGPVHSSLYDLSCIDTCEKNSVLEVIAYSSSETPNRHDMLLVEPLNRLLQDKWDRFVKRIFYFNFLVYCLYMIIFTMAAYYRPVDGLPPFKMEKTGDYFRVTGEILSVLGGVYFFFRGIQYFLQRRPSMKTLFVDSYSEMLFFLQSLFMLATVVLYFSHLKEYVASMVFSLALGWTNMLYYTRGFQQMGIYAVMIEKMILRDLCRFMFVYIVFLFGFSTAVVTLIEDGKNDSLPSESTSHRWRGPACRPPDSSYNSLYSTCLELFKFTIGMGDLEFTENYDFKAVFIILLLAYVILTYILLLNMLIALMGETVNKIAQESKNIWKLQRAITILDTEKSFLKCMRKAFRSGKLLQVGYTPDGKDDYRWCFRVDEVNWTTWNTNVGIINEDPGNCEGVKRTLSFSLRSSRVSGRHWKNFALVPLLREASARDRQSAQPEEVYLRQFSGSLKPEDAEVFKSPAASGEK

Take `CCCCCC[C@H](C/C=C\CCCCCCCC(=O)NCc1ccc(O)c(OC)c1)OC(C)=O`: at human TRPV1 (setting [1]), the EC50 is 0.501 nM. Also, the “pEC50 methanol (pEC50 values for TPVR1)” value on human TRPV1 (in methanol) came out at 9.40 ± 0.18.

As for `CCCCCC[C@H](C/C=C\CCCCCCCC(=O)NCc1ccc(O)c(OC)c1)OC(=O)Cc1ccccc1` [Compound of example 2, 12-Phenylacetyl Rinvanil], the “N^o of minctions per hour” value in the assay on Sprague Dawley rats amounted to 19 ± 2 per hour. In the assay with Sprague Dawley rats, the “number of minctions per hour, result in words” value was “remained similar to that of non-operated animals”. The EC50 on human TRPV1 (pEC50 DMSO (pEC50 values for TPVR1), in DMSO) was 0.102 nM; on human TRPV1 (pEC50 methanol (pEC50 values for TPVR1), in methanol) it was 0.0661 nM.

Turning to `CCCCCC[C@H](C/C=C\CCCCCCCC(=O)NCc1ccc(O)c(OC)c1)OC(=O)c1ccccc1` [Compound of example 9, 12-Benzoyl Rinvanil], the EC50 was 0.129 nM on human TRPV1 (setting [1]) and 0.288 nM on human TRPV1 (setting [2]).

As to `CCCCCC[C@H](CC1CC1CCCCCCCC(=O)NCc1ccc(O)c(OC)c1)OC(=O)Cc1ccccc1` (some centres unmarked) [Compound of example 12, 9,10-Methylen-12-Phenylacetyl Rinvanil I], the EC50 at human TRPV1 (setting [1]) is 0.12 nM; at human TRPV1 (setting [2]) it was 0.158 nM.

With `CCCCCC[C@H](CC1OC1CCCCCCCC(=O)NCc1ccc(O)c(OC)c1)OC(=O)Cc1ccccc1` (some centres unmarked) [Compound of example 15, 9,10-Epoxy-12-Phenylacetyl Rinvanil], the EC50 is 5.37 nM on human TRPV1 (setting [1]) and 4.07 nM on human TRPV1 (setting [2]).

As for `C=C(C)[C@]12C[C@@H](C)[C@@]34O[C@](Cc5ccccc5)(O[C@@H]1[C@@H]3C=C(COC(=O)Cc1ccc(O)c(OC)c1)C[C@]1(O)C(=O)C(C)=C[C@@H]41)O2` [Resiniferotoxin, resiniferotoxin, reference compound], in the assay with Sprague Dawley rats, the “N^o of minctions per hour” value amounted to 17 ± 2 per hour and the “number of minctions per hour, result in words” value is listed as “remained similar to that of non-operated animals”.

The values are drawn from US7429673B2, “TRPV1 agonists, formulations containing them and uses thereof” (priority 2004, dated 2008).
